Patent EP2455756A1, “Cell-based screening assay for inhibitors of NET formation” (Max-Planck-Gesellschaft zur Förderung der Wissenschaften …, priority 2010, dated 2012)
“Also recorded” adds a separate entry of the source.

Experiments:
neutrophils [1] = test: Nuclear area and nuclear morphology (perimeter vs. Heywood circularity factor) of activated neutrophils, Sytox Green staining, automated microscopy; type: cell-based, Human
Experimental: During NET formation there are discrete changes in nuclear size and shape. According to the invention four distinct nuclear morphologies were defined (Fig. 1) (i) lobulated, (ii) delobulated, (iii) diffused NETs and (iv) spread NETs. […] The nuclear morphology, i.e. the morphology of the nuclear DNA was analyzed in more detail by plotting the perimeter vs. the Heywood circularity factor.
In contrast, most nuclei of neutrophils activated for 240 min, had diffused nuclei, or spread NETs that could be measured by their large perimeter and low Heywood circularity factor (Fig. 3b).
For nuclear size and shape, neutrophils were activated with PMA for 240 min, fixed with PFA (2%), permeabilized with Triton X100 (0.1%) and stained with Sytox Green. The four distinct nuclear morphologies during the progression to NET formation are lobulated, delobulated or diffused NETs and spread NETs (Fig.1). Bar=10 µm
Neutrophils were activated with PMA (40nM). Fifteen min after activation the nuclei were homogenous and smaller than 100 µm^2 in area while the nuclei of activated neutrophils were heteregenous and between 150 and more than 350 µm^2 (Figs. 3). Each dot in Figs. 3 (Dot plot of nuclei analyzed for perimeter vs. Heywood circularity factor) represents a nucleus. Gates were set to distinguish between lobulated, delobulated, diffused NETs and spread NETs.
In Fig. 3a fifteen min after activation, more than 95% of the nuclei were either lobulated or delobulated. […] The images were generated by an automated microscopy system and analyzed by image analysis software Scan ^R.

neutrophils [2] = test: Quantification of cell viability with Sytox Green, fluorometer; type: cell-based, Human; conditions: PMA (40 nM) for 240 min, Sytox Green (2µM)
Experimental: Neutrophils were activated with PMA (40 nM) for 15 min and 240 min, stained with the vital dye Sytox Green (2µM) and analyzed with a fluorometer. […] Different numbers of neutrophils per well were plated and activated with PMA for 240 min or incubated with the non ionic detergent NP-40.

CCCCCCCCCCCCCC(=O)O[C@@H]1[C@@H](C)[C@@]2(O)[C@@H](C=C(CO)C[C@]3(O)C(=O)C(C)=C[C@@H]23)[C@@H]2C(C)(C)[C@]12OC(C)=O [PMA, phorbol-12-myristate-13-acetate]
nuclei either diffused or already made NETs (neutrophils [1]; 240 min after activation with PMA (40nM)): more than 95% | nuclei either lobulated or delobulated (neutrophils [1]; fifteen min after activation with PMA (40nM)): more than 95% | nuclear area (mean) (neutrophils [1]; neutrophils activated with PMA (40 nM) for 240 min, SD: 109µm^2, n: 2000): 244 µm^2 | cell death (Sytox Green fluorescence) (neutrophils [2]): fluorescent, indicating cell death; also recorded: most cells die after activation
